# According to US10174056B2, “Substituted pyrrolo[2,3-d]pyrimidines as janus kinase inhibitors” (WUXI FORTUNE PHARMACEUTICAL CO., LTD, priority 2015, dated 2019):
# What was measured:
# JAK1 = target: T1, JAK1 (Homo sapiens, UniProt P23458); experiment: Test for in vitro activity of JAK1 kinase (LANCE Ultra ULight peptide); format: biochemical; settings: recombinant human JAK1, 38 uM ATP, 90 min
# T1 construct: purchased Life technology
# Protocol: (§1) Test for in vitro activity of Jak1, Jak2, and Jak3 Kinase
# (§2) Recombinant human […] of JAK1, JAK2 and JAK3 were purchased from Life technology. LANCE Ultra ULight™-JAK-1 (Tyr1023) peptide and LANCE Eu-W1024 Anti-phosphotyrosine (PT66) were purchased from PerkinElmer. Multimode ELISA, Envison(PerkinElmer) reader was used.
# (§3) The test compound was diluted according to gradient of three times concentration with a final concentration of from 10 uM to 0.17 nM at 11 concentrations totally, each concentration with two complex holes, and the content of DMSO in the detection was 1%.
# (§4) 2 nM of JAK1 Protein kinase, 50 nM of LANCE Ultra ULight™-JAK-1(Tyr1023) peptide, 38 uM of ATP, 50 mM of HEPES (pH 7.5), 10 mM of MgCl2, 1 mM of EGTA, 2 mM of DTT, 0.01% BRIJ-35. Checker board is White Proxiplate 384-Plus plate (PerkinElmer). The reaction was carried out at room temperature for 90 min and the reaction system was 10 ul.
# (§5) 10 ul detection reagent was added to reaction plate, wherein the final concentration of LANCE Eu-W1024 Anti-phosphotyrosine (PT66) was 2 nM, the final concentration of EDTA was […], incubated at room temperature for 60 min, with Envison reader.
# (§6) The reading was converted to inhibition ratio (%) by the following formula: the inhibition ratio (%)=([…])/(Max−Min)×100%.
# JAK2 = target: T2, JAK2 (Homo sapiens, UniProt O60674); experiment: Test for in vitro activity of JAK2 kinase (LANCE Ultra ULight peptide); format: biochemical; settings: recombinant human JAK2, 12 uM ATP, 60 min
# T2 construct: purchased Life technology
# Protocol: as §1, §2, §3
# as §4, with “0.02 nM” for “2 nM”, “of JAK2” for “of JAK1”, “peptide, 12” for “peptide, 38”, “for 60” for “for 90”
# as §5, §6
# [1] = Pharmacokinetic (PK) test in mice; format: in vivo, DBA/1 mice; settings: for bioavailability / AUC(0-inf) / Cmax / half-life: mouse, plasma, po, DBA/1 mice, mean; for bioavailability: gavage vs tail vein injection; for AUC(0-inf) / Cmax / half-life: tail vein injection and gavage
# Protocol: Pharmacokinetic (PK) Test
# The clear solution obtained by dissolving the test compound was respectively administrated by tail vein injection and gavage into the mice DBA/1 mice (overnight fasting, 7 to 8 weeks old). After administration of the test compound, the mice in the vein injection group at 0.083, 0.25, 0.5, 1, 2, 4, 8 and 24 hours, and gavage group at 0.25, 0.5, 1, 2, 4, 8 and 24 hours, blood is collected from the mandibular vein and centrifuged to obtain plasma. The plasma concentration was determined by LC-MS/MS. The pharmacokinetic parameters were calculated by non-compartmental model linear logarithmic trapezoid method with using WinNonlin™ Version 6.3 pharmacokinetic software.
# [2] = tested on: rat adjuvant arthritis model; experiment: Rat adjuvant-induced arthritis model efficacy test; format: in vivo; settings: Lewis rats, oral; for AUC (%): two weeks of administration from day 13; for arthritis inhibitory activity (in words): swollen foot volume and score
# Protocol: Rat Adjuvant-Induced Arthritis Model Efficacy Test
# The effect of the compounds of the present invention on the treatment of arthritis was verified by rat adjuvant arthritis models.
# Female, Lewis rats with body weight 160-180 g were anesthetized with isoflurane and was injected with 0.1 ml of mycobacterium tuberculosis suspension subcutaneously in the left posterior foot. After modeling for 13 days, the corresponding test compound was administrated, such as that the rats were respectively administrated with 1 mpk, 3 mpk, 10 mpk of the test compound WX614, 10 mpk of the test compound WX552, and 10 mpk of the test compound WX591 dissolved in a mixed solvent of DMSO/PEG400/H2O, and orally administered to female Lewis rats (10 rats in each dose group). Two weeks after continuous administration, the state of the rats was observed and the volume of the swollen foot was recorded and scored.
# [3] = tested on: mouse collagen-induced arthritis model; experiment: Mouse collagen-induced arthritis model efficacy test; format: in vivo, DBA/1 male mice; settings: CIA mice, oral, 2 weeks
# Protocol: Mouse Collagen-Induced Arthritis Model Efficacy Test
# The effect of the compounds of the present invention on the treatment of arthritis was verified by the mouse collagen-induced arthritis model.
# The DBA/l male mice were selected and injected subcutaneously with the emulsions of collagen and Freund's complete adjuvant at base of tail on day 0 and day 21, and on day 29 the mice was divided into groups. The compound WX6144 (3 mpk, 10 mpk, 30 mpk) was dissolved in DMSO/PEG400/H2O [5/20/75 (v/v/v)] and administered orally to CIA mice (Shanghai SLAC Laboratory Animal Co., Ltd, 10 mice in each dose group), and the mice were continuously administrated for 2 weeks, the weight of mice were recorded and the arthritis of mice was clinically scored.
# T2 sequence (O60674 whole entry): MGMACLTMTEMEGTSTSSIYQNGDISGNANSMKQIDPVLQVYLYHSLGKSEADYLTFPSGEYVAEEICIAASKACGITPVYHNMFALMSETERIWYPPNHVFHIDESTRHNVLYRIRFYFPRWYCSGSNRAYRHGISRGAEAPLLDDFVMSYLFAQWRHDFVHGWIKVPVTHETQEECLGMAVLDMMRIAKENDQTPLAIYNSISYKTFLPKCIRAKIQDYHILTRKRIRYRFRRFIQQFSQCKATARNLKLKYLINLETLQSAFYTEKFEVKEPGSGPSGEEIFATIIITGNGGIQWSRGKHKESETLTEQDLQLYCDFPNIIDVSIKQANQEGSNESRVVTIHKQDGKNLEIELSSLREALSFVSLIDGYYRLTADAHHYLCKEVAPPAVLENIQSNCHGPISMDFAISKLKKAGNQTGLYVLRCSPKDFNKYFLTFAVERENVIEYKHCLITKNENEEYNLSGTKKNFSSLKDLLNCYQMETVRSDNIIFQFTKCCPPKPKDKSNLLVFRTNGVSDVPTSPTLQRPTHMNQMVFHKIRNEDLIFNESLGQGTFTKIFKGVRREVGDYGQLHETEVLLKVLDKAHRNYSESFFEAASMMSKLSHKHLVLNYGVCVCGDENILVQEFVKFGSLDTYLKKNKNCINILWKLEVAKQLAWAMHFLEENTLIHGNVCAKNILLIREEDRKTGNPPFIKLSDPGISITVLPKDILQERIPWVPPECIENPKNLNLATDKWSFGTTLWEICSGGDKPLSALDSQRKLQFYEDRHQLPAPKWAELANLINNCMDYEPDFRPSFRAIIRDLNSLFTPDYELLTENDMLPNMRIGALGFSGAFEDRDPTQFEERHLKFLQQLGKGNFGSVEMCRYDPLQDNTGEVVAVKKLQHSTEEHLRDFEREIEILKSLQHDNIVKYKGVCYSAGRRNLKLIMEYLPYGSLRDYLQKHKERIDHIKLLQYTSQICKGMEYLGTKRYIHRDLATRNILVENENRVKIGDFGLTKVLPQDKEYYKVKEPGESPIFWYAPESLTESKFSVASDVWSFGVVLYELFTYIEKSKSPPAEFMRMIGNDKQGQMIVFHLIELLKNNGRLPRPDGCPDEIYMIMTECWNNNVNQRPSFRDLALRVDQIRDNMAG
# T1 sequence (P23458 whole entry): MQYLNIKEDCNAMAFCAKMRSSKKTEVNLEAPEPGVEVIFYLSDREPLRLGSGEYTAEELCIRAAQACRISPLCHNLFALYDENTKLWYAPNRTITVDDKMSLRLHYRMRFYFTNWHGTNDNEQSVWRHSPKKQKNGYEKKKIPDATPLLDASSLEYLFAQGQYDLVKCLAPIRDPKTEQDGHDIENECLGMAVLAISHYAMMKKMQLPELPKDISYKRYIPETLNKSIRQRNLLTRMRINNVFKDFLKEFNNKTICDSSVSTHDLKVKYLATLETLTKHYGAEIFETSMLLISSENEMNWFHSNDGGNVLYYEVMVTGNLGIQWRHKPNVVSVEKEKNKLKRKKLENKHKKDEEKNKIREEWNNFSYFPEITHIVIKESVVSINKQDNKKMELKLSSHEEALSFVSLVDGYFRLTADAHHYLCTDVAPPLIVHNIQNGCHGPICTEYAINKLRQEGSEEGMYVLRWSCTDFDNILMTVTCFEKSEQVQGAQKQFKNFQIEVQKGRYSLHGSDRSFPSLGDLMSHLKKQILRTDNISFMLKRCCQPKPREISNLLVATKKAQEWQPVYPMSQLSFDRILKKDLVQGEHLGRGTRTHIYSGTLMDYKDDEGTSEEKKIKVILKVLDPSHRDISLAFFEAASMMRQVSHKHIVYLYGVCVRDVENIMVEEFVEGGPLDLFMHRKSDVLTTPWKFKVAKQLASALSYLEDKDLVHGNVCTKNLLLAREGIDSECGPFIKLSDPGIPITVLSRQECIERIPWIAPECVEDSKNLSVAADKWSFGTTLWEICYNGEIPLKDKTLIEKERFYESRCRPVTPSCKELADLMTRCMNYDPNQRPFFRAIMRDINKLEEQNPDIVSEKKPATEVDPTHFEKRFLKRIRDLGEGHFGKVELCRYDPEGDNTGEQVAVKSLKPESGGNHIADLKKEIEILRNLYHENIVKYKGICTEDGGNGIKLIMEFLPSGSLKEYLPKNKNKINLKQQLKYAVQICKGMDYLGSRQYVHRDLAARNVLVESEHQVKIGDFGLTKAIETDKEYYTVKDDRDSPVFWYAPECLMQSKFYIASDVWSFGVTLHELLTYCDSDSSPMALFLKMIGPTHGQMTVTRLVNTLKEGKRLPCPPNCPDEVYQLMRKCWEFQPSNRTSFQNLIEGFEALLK
Structure (SMILES),IC50 (JAK1) [nM],IC50 (JAK2) [nM],other results
"CN(c1ncnc2[nH]ccc12)C1CCn2cc(C#N)nc2C1 (racemic) [WX591, 7-[methyl-[7 hydropyrrolo[2,3-d]pyrimidine-4-yl]amino]-5,6,7,8-tetrahydroimidazo [1,2-a]pyridine-2-nitrile]",10 to 100,100 to 1000,oral bioavailability and exposure in mice (in words) [1]: good oral bioavailability and higher exposure; bioavailability [1]: 87%; AUC(0-inf) [1]: 10.5 µM·h; Cmax [1]: 3.02 µM; half-life [1]: 2.26 h; AUC (%) ([2]; 10 mg/kg): 44.7%; arthritis inhibitory activity (in words) [2]: good arthritis inhibitory activity
CN(c1ncnc2[nH]ccc12)C1CCn2cc(CO)nc2C1 (centres unmarked) [WX551],100 to 1000,> 1000,
"CN(c1ncnc2[nH]ccc12)C1CCn2cc(CC#N)nc2C1 (racemic) [WX552, 2-[7-[methyl(7H-pyrrolo[2,3-d]pyrimidine-4-yl)amino]-5,6,7,8-tetrahydroimidazo[1,2-a]pyridine-2-yl]acetonitrile]",10 to 100,100 to 1000,oral bioavailability and exposure in mice (in words) [1]: good oral bioavailability and higher exposure; bioavailability [1]: 74.4%; AUC(0-inf) [1]: 11.4 µM·h; Cmax [1]: 3.72 µM; half-life [1]: 1.18 h; AUC (%) ([2]; 10 mg/kg): 31.7%; arthritis inhibitory activity (in words) [2]: good arthritis inhibitory activity
"CNCc1cn2c(n1)CC(N(C)c1ncnc3[nH]ccc13)CC2 (centres unmarked) [WX605, N-methyl-N-[2-(methylaminomethyl)-5,6,7,8-tetrahydroimidazo[1,2-a]pyridine-7-yl]-7H-7H-pyrrolo[2,3-d]pyrimidine-4-amine]",> 1000,> 1000,
"CN(c1ncnc2[nH]ccc12)C1CCn2cc(CC#N)nc2C1 (single isomer, unassigned) [WX613, (R or S)2-[7-[methyl(7H-pyrrolo[2,3-d]pyrimidine-4-yl)amino]-5,6,7,8-tetrahydroimidazo [1,2-a]pyridine-2-yl]acetonitrile]",10 to 100,100 to 1000,
"CN(c1ncnc2[nH]ccc12)C1CCn2cc(CC#N)nc2C1 (single isomer, unassigned) [WX612, (S or R) 2-[7-[methyl(7H-pyrrolo[2,3-d]pyrimidine-4-yl)amino]-5,6,7,8-tetrahydroimidazo[1,2-a]pyridine-2-yl]acetonitrile]",> 1000,> 1000,
"CN(c1ncnc2[nH]ccc12)[C@@H]1CCn2cc(C#N)nc2C1 (single isomer, unassigned) [WX615, (R or S) 7-[methyl-[7 hydropyrrolo[2,3-d]pyrimidine-4-yl]amino]-5,6,7,8-tetrahydroimidazo [1,2-a]pyridine-2-nitrile]",> 1000,> 1000,
"CN(c1ncnc2[nH]ccc12)[C@H]1CCn2cc(C#N)nc2C1 (single isomer, unassigned) [WX614, (S or R) 7-[methyl-[7 hydropyrrolo[2,3-d]pyrimidine-4-yl]amino]-5,6,7,8-tetrahydroimidazo[1,2-a]pyridine-2-nitrile]",≤ 10,10 to 100,oral bioavailability and exposure in mice (in words) [1]: good oral bioavailability and higher exposure; bioavailability [1]: 73.9%; AUC(0-inf) [1]: 10.2 µM·h; Cmax [1]: 3.09 µM; half-life [1]: 1.76 h; AUC (%) ([2]; 1 mg/kg): 20.2%; AUC (%) ([2]; 3 mg/kg): 50.2%; AUC (%) ([2]; 10 mg/kg): 61.8%; arthritis inhibitory activity (in words) [2]: good arthritis inhibitory activity; AUC (%) ([3]; 3 mg/kg): 42.4%; AUC (%) ([3]; 10 mg/kg): 51.3%; AUC (%) ([3]; 30 mg/kg): 82.5%; therapeutic effect on mouse rheumatoid arthritis (in words) ([3]; clinical score): significant therapeutic effect

# Continued, in another order:
IC50 (JAK1) [nM],IC50 (JAK2) [nM],Structure (SMILES),other results
100 to 1000,> 1000,"CCOC(=O)c1cn2c(n1)CC(N(C)c1ncnc3[nH]ccc13)CC2 (centres unmarked) [WX550, ethyl 7-[methyl(7H-pyrrolo[2,3-d]pyrimidine-4-yl)amino]-5,6,7,8-tetrahydroimidazo[1,2-a]pyridine-2-carboxylate]",
> 1000,> 1000,"CN(c1ncnc2[nH]ccc12)C1CCn2cc(C(=O)NC3CC(F)(F)C3)nc2C1 (centres unmarked) [WX593, N-(3,3-difluorocyclobutyl)-7-[methyl(7H-pyrrolo[2,3-d]pyrimidine-4-yl]amino]-5,6,7,8-tetrahydroimidazo [1,2-a]pyridine-2-carboxamide]",
100 to 1000,> 1000,CN(c1ncnc2[nH]ccc12)C1CCn2cc(C(=O)NCC(F)(F)F)nc2C1 (centres unmarked) [WX579],
100 to 1000,> 1000,"CN(c1ncnc2[nH]ccc12)C1CCn2cc(CNS(C)(=O)=O)nc2C1 (centres unmarked) [WX606, N-((7-(methyl-(7H-pyrrolo[2,3-d]pyrimidine-4-yl)amine)-5,6,7,8-tetrahydroimidazo[1,2-a]pyridine-2-yl)methyl)methanesulfonamide]",
> 1000,> 1000,CN(c1ncnc2[nH]ccc12)C1CCn2cc(C(=O)NCCS(C)(=O)=O)nc2C1 (centres unmarked) [WX592],
100 to 1000,> 1000,CNC(=O)c1cn2c(n1)CC(N(C)c1ncnc3[nH]ccc13)CC2 (centres unmarked) [WX604],
100 to 1000,> 1000,CN(c1ncnc2[nH]ccc12)C1CCn2cc(C(=O)NCC#N)nc2C1 (centres unmarked) [WX581],
100 to 1000,> 1000,CN(c1ncnc2[nH]ccc12)C1CCn2cc(C(=O)NCC(F)F)nc2C1 (centres unmarked) [WX580],
